Experimental data reported in patent US20040028610A1, “Method of increasing the sensitivity of mammography” (priority 2003, published 2004).
“Also recorded” adds a separate entry of the source.

How the values were obtained:
breast tissue [1] = assay: Treatment with topical androgen preparation (PCA cream), then mammography and manual breast examination; type: in vivo, human (pre and postmenopausal women)
From the text: (§1) In advance of the mammographic procedure, patients were instructed to not wear deodorant (the crystals cause difficulty in reading the films). […] A Picker Digital Mammogram was used to take the frontal and side views of the breast tissue bilaterally. Minimums of two views were taken per breast. The films were then interpreted by a radiologist with experience in interpreting mammograms and graded with the BI-RADS system.
Patients in need of breast cancer examinations were provided topical formulations for administration of androgen preparations in the outpatient setting. Lakeview Pharmacy, Inc made up the compounded equivalent of Depo-Testosterone (150 mg of testosterone cypionate mixed in PCA cream) with an application of 6 inches squeezed from a multi-use tube of the mixture and rubbed into the skin on a daily basis. The androgen preparation was administered as a total monthly dose from about 150 mg to about 200 mg. The formulation was given to approximately 15 pre and postmenopausal women ranging in age from 24 to 80 years of age. The patient was then scheduled for a mammogram at least one month but not more than two months after administration of the androgen preparation. Mammography was performed as described in Example 1.

breast tissue [2] = assay: Treatment with parenteral (intramuscular) androgen preparation, then mammography and manual breast examination; type: in vivo, human (pre and postmenopausal women)
Procedure: Patients in need of breast cancer examinations were provided parenteral administration of androgen preparations in the clinical setting. Lakeview Pharmacy, Inc. prepared the compounded equivalent of Depo-Testosterone (Testosterone Cypionate 200 mg/ml dissolved in Cottonseed Oil and preserved with Benzyl Benzoate USP and Benzyl Alcohol NF.) in a multi-use vial. The androgen preparation was administered in a dose of about 150 mg to about 200 mg per month for the treatment of fibrocystic breast disorders. The treating physician delivered the preparation intramuscularly in a single dose. The preparation was given to approximately 40 pre and postmenopausal women ranging in age from 24 to 80 years of age. The patients were then scheduled for a mammogram at least one month but not more than three months after commencement of administration of the androgen preparation.
as §1

breast tissue [3] = assay: Administration of testosterone to female patients with dense or fibrous breasts (summary statements); type: in vivo, human (pre- and post-menopausal women)
[4] = patients presenting with dense breast tissue and attendant mastalgia
[5] = pre- and post-menopausal women with fibrous or dense breasts

| SMILES | alteration of the menstrual cycle by the medication (breast tissue [1]; topical) | radiographic breast density on mammographic images (breast tissue [1]; topical PCA cream daily, total monthly dose about 150 mg to about 200 mg, approximately 15 women, seen after only one monthly treatment) | breast palpability by manual examination (breast tissue [1]; topical PCA cream daily, total monthly dose about 150 mg to about 200 mg, seen after only one monthly treatment) | mammographic changes in density, patients affected (breast tissue [1]; topical, most significant in those patients with dense breasts) | lesions requiring 6-month follow up, at second mammogram (breast tissue [1]; topical, sustained treatment for 6 or more months, some lesions) | effects on radiographic and palpable density after two months of treatment (versus one month) (breast tissue [1]; topical, two months of androgen treatment prior to examination) | alteration of the menstrual cycle by the medication (breast tissue [2]) | radiographic breast density on mammographic images (breast tissue [2]; about 150 mg to about 200 mg per month, approximately 40 women, seen after only one monthly treatment, films graded with BI-RADS) | breast palpability by manual examination (breast tissue [2]; about 150 mg to about 200 mg per month, seen after only one monthly treatment) | mammographic changes in density, patients affected (breast tissue [2]; most significant in those patients with dense breasts) | lesions requiring 6-month follow up, at second mammogram (breast tissue [2]; sustained treatment for 6 or more months, some lesions) | effects on radiographic and palpable density after two months of treatment (versus one month) (breast tissue [2]; two months of androgen treatment prior to examination) | visualization of breast tissue in mammographic procedures (breast tissue [3]; female patients with dense breast tissue) | mammographic opacity and overall density (breast tissue [3]; [4]) | palpability of breast tissue during manual examination (breast tissue [3]; [4]) | number or size of fibrous (fibrocystic) breast lesions (breast tissue [3]; [5]) | palpable breast density (breast tissue [3]; [5]) | radiographic density (breast tissue [3]; [5]) | symptoms secondary to cyclic causes (sense of breast fullness or heaviness) (breast tissue [3]; [5]) |
| --- | --- | --- | --- | --- | --- | --- | --- | --- | --- | --- | --- | --- | --- | --- | --- | --- | --- | --- | --- |
| C[C@]12CC[C@H]3[C@@H](CCC4=CC(=O)CC[C@@]43C)[C@@H]1CC[C@@H]2OC(=O)CCC1CCCC1 [Testosterone Cypionate] | nor did the medication alter the menstrual cycle | appreciable reduction | improved | noted in all patients | disappeared | More significant effects | nor did the medication alter the menstrual cycle | appreciable reduction | improved | noted in all patients | disappeared | More significant effects |  |  |  |  |  |  |  |
| C[C@]12CC[C@H]3[C@@H](CCC4=CC(=O)CC[C@@]43C)[C@@H]1CC[C@@H]2O [testosterone] |  |  |  |  |  |  |  |  |  |  |  |  | significantly improved | marked reduction | significantly improved | decrease; also recorded: reduced | decrease | decrease | eliminated; also recorded: reduced |
